# Ends that are not written are not given here.
# Tests used:
# E. coli (ATCC 25922) [1] = assay: Outer membrane permeability, NPN probe; assay type: cell-based; details: 1×MIC to 8×MIC, NPN fluorescence, 15 min
# Experimental: The destruction of bacterial cell OM was determined by using hydrophobic fluorescent probe NPN (1-N-phenylnaphthylamine) to determine the effect of the compounds on the OM permeability of E. coli (ATCC 25922).
# Taking compounds 2, 8, 9, 13 and 15 of the present invention as examples, the OM permeability of E. coli with the presence of the antibacterial polypeptide compounds was analyzed. E. coli cells were washed twice with PBS solution and resuspended in 5 mM HEPES (pH 7.2), and then diluted to a concentration of […]. […] The excitation wavelength and emission wavelength were set to 350 nm and 420 nm, separately, and the cells were detected once every minute using a multifunctional ELISA reader within a 15-min period of time.
# [2] = tested on: S-3a, clinical isolated drug-resistant strain MRSA; details: strain S-3a (MRSA)
# In short: (§1)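 Log-phase cells grown in MH (bacteria) or SD (fungi) medium at 37 °C were plated at 1×10^5 CFU/ml with 2-fold serially diluted peptide (1-256 μM solutions added at twice final concentration). After 12 h at 37 °C, MIC was taken as the first clear well by eye, in triplicate.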
# C. tropicalis ATCC750 = details: fungus
# In short: as §1
# [3] = tested on: Pseudomonas aeruginosa (ATCC 27853); details: standard strain
# In short: as §1
# [4] = tested on: Cronobacter sakazakii (ATCC 29544); details: standard strain
# In short: as §1
# [5] = tested on: E-5b, clinical isolated drug-resistant strain ESBL; details: strain E-5b (ESBL)
# In short: as §1
# [6] = tested on: P-2c, clinical isolated drug-resistant strain PA; details: strain P-2c (PA)
# In short: as §1
# [7] = tested on: Staphylococcus aureus (ATCC 29213); details: standard strain
# In short: as §1
# C. parapsilosis ATCC2001 = details: fungus
# In short: as §1
# C. albicans ATCC14053 = details: fungus
# In short: as §1
# C. krusei ATCC6258 = details: fungus
# In short: as §1
# [8] = tested on: E-2b, clinical isolated drug-resistant strain ESBL; details: strain E-2b (ESBL)
# In short: as §1
# [9] = tested on: Bacillus subtilis (ATCC 23857); details: standard strain
# In short: as §1
# [10] = tested on: S-1a, clinical isolated drug-resistant strain MRSA; details: strain S-1a (MRSA)
# In short: as §1
# [11] = tested on: Staphylococcus epidermidis (ATCC 12228); details: standard strain
# In short: as §1
# [12] = tested on: S-4a, clinical isolated drug-resistant strain MRSA; details: strain S-4a (MRSA)
# In short: as §1
# [13] = tested on: E-3b, clinical isolated drug-resistant strain ESBL; details: strain E-3b (ESBL)
# In short: as §1
# [14] = tested on: P-1c, clinical isolated drug-resistant strain PA; details: strain P-1c (PA)
# In short: as §1
# [15] = tested on: S-2a, clinical isolated drug-resistant strain MRSA; details: strain S-2a (MRSA)
# In short: as §1
# [16] = tested on: P-5c, clinical isolated drug-resistant strain PA; details: strain P-5c (PA)
# In short: as §1
# E. coli (ATCC 25922) [17] = details: standard strain
# In short: as §1
# [18] = tested on: P-3c, clinical isolated drug-resistant strain PA; details: strain P-3c (PA)
# In short: as §1
# [19] = tested on: E. coli ML-35 (ATCC 43837); assay: Inner membrane permeability, ONPG / β-galactosidase release; assay type: cell-based; details: 1×MIC to 8×MIC, 90 min
# Experimental: The effect on the integrity of bacterial […] was determined by determining the release amount of β-galactosidase from E. coli ML-35 (ATCC 43837) with ONPG (o-nitrobenzene-β-D-galactoside), thereby detecting the effect of the compounds on the permeability of E. coli IM.
# Taking compounds 2, 8, 9, 13 and 15 of the present invention as examples, the IM permeability of E. coli with the presence of the antibacterial polypeptide compounds was analyzed. E. coli ML-35 cells were washed twice with PBS solution and resuspended in 0.9% sodium chloride solution. […] The cells were detected at 420 nm once every 5 mins using a multifunctional ELISA reader within a 90-min period of time.
Substance,OM permeability of E. coli (E. coli (ATCC 25922) [1]),MIC [2],MIC C. tropicalis ATCC750 (C. tropicalis ATCC750),MIC P. aerugmosa ATCC27853 [3],MIC C. sakazakii ATCC29544 [4],MIC [5],MIC [6],MIC S. aureus ATCC29213 [7],MIC C. parapsilosis ATCC2001 (C. parapsilosis ATCC2001),MIC C. albicans ATCC14053 (C. albicans ATCC14053),MIC C. krusei ATCC6258 (C. krusei ATCC6258),MIC [8],MIC B. subtilis ATCC23857 [9],MIC [10],MIC S. epidermidis ATCC12228 [11],MIC [12],MIC [13],MIC [14],MIC [15],MIC [16],other results
"Pro-Phe-Lys-Leu-Ser-Leu-His-Leu-NH2 (PFKLSLHL-NH2) [Compound J-1, reference compound]",destroy the integrity of the E. coli OM in a dose-dependent manner,128 µM,16 µM,32 µM,64 µM,32 µM,32 µM,128 µM,32 µM,64 µM,32 µM,32 µM,32 µM,128 µM,64 µM,128 µM,32 µM,32 µM,128 µM,32 µM,MIC C. coli ATCC25922 (E. coli (ATCC 25922) [17]): 32 µM; MIC [18]: 32 µM; IM permeability of E. coli [19]: destroying the integrity of the E. coli IM in a dose-dependent manner
Pro-Trp-Orn-Leu-Orn-Leu-His-Leu-NH2 (PWXLXLHL; HELM PEPTIDE1{P.W.[Orn].L.[Orn].L.H.L.[am]}$$$$V2.0; N-terminus assumed; SMILES CC(C)C[C@H](NC(=O)[C@H](Cc1c[nH]cn1)NC(=O)[C@H](CC(C)C)NC(=O)[C@H](CCCN)NC(=O)[C@H](CC(C)C)NC(=O)[C@H](CCCN)NC(=O)[C@H](Cc1c[nH]c2ccccc12)NC(=O)[C@@H]1CCCN1)C(N)=O) [Compound 9],destroy the integrity of the E. coli OM in a dose-dependent manner,64 µM,16 µM,8 µM,16 µM,8 µM,8 µM,64 µM,16 µM,32 µM,64 µM,8 µM,16 µM,64 µM,32 µM,64 µM,8 µM,8 µM,64 µM,8 µM,MIC C. coli ATCC25922 (E. coli (ATCC 25922) [17]): 8 µM; MIC [18]: 8 µM; IM permeability of E. coli [19]: destroying the integrity of the E. coli IM in a dose-dependent manner

# — US20250345492A1, “AN ANTIBACTERIAL POLYPEPTIDE COMPOUND, A MEDICAL DEVICE, HYDROGEL AND USE THEREOF” (priority 2020, published 2025)
